Data taken from the NIST ThermoML archive (doi:10.1016/j.jct.2015.09.020).
± gives the expanded uncertainty stated by the source.

Key:
[1] = mn = molality of the nth substance listed, in mol/kg; settings: 278.15 K, 101.3 kPa, Liquid, m2 = 0; for speed of sound: Frequency=2 MHz, Linear variable-path acoustic interferometer; for mass density: Pycnometric method
[2] = 278.15 K, 101.3 kPa, Liquid

What does the source list for `O` [water] + N[C@@H](CCC(=O)[O-])C(=O)O.[Na+]?
speed of sound [1]: 1426.2 ± 1.7 m/s; mass density [1]: 999.96 ± 0.29 kg/m3

For `O` [water] + Cl.NCC(=O)O, which speed of sound [1] is on record?
Its speed of sound is 1426.2 ± 1.7 m/s.

What about the mass density [1] of the same molecule?
The mass density was 999.96 ± 0.28 kg/m3.

With `O` [water] as the molecule, how does the speed of sound ([2]; Frequency=2 MHz, Linear variable-path acoustic interferometer) read?
Its speed of sound is 1426.2 ± 1.7 m/s.

And the mass density ([2]; Pycnometric method)?
The mass density was 999.96 ± 0.28 kg/m3.

Which speed of sound [1] does the source give for `O` [water] + NCCCC(=O)O here?
The speed of sound was 1426.2 ± 1.7 m/s.

And the mass density [1]?
Its mass density is 999.96 ± 0.28 kg/m3.
